One block for each molecule: values may come before it.
Legend:
Experiment in all cases: Biochemical Assay
GTPase NRas [Q61R] = GTPase NRas [Q61R] (Homo sapiens, UniProt P01111, Q61R)
GTPase KRas [G12C] = GTPase KRas [G12C] (Homo sapiens, UniProt P01116, G12C)
Description: (§1) The purpose of this biochemical assay is to measure the ability of test compounds to covalently label nucleotide-loaded K-Ras isoforms. […] Analysis of raw data may be carried out using Waters MassLynx MS software, with % bound calculated from the deconvoluted protein peaks for labeled and unlabeled K-Ras.

GTPase NRas [Q61K] = GTPase NRas [Q61K] (Homo sapiens, UniProt P01111, Q61K)
Sequence of GTPase NRas [Q61K] (P01111 whole entry Q61K): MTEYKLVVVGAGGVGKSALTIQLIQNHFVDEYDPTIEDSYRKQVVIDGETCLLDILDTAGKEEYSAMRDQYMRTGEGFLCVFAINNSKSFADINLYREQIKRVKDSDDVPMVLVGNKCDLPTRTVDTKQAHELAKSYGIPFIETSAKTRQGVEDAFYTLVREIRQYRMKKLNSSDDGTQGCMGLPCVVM

GTPase NRas [G12C] = GTPase NRas [G12C] (Homo sapiens, UniProt P01111, G12C)
Sequence of GTPase NRas [G12C] (P01111 whole entry G12C): as the sequence (P01111 whole entry Q61K) above, with G12C, K61Q counted along it

GTPase KRas [G12S] = GTPase KRas [G12S] (Homo sapiens, UniProt P01116, G12S)
Sequence of GTPase KRas [G12S] (P01116 whole entry G12S): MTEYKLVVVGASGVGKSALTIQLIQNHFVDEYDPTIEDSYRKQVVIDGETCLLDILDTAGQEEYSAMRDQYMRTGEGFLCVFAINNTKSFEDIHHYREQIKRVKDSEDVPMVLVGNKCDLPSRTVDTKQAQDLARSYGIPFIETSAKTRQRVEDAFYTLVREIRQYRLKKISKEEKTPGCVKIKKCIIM
Description: as §1

GTPase KRas [G13C] = GTPase KRas [G13C] (Homo sapiens, UniProt P01116, G13C)
Sequence of GTPase KRas [G13C] (P01116 whole entry G13C): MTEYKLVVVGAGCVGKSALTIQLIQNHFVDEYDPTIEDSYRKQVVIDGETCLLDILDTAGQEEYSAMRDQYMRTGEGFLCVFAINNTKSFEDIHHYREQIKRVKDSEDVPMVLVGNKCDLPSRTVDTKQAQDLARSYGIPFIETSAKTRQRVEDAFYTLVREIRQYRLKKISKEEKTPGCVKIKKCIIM
Description: as §1

GTPase NRas = GTPase NRas (Homo sapiens, UniProt P01111)
Sequence of GTPase NRas (P01111 whole entry): as the sequence (P01111 whole entry Q61K) above, with K61Q counted along it

GTPase KRas [G12V] = GTPase KRas [G12V] (Homo sapiens, UniProt P01116, G12V)
Sequence of GTPase KRas [G12V] (P01116 whole entry G12V): as the sequence (P01116 whole entry G13C) above, with G12V, C13G counted along it
Description: as §1

GTPase KRas = GTPase KRas (Homo sapiens, UniProt P01116)
Sequence of GTPase KRas (P01116 whole entry): as the sequence (P01116 whole entry G13C) above, with C13G counted along it
Description: as §1

GTPase KRas [Q61H] = GTPase KRas [Q61H] (Homo sapiens, UniProt P01116, Q61H)
Sequence of GTPase KRas [Q61H] (P01116 whole entry Q61H): as the sequence (P01116 whole entry G13C) above, with C13G, Q61H counted along it
Description: as §1

GTPase KRas [G12D] = GTPase KRas [G12D] (Homo sapiens, UniProt P01116, G12D)
Sequence of GTPase KRas [G12D] (P01116 whole entry G12D): as the sequence (P01116 whole entry G13C) above, with G12D, C13G counted along it
Description: as §1

Sequence of GTPase NRas [Q61R] (P01111 whole entry Q61R): as the sequence (P01111 whole entry Q61K) above, with K61R counted along it
Sequence of GTPase KRas [G12C] (P01116 whole entry G12C, canonical isoform): as the sequence (P01116 whole entry G13C) above, with G12C, C13G counted along it

IC50 (GTPase NRas [Q61R]): > 10000 nM | IC50 (GTPase KRas [G12C]): in the range around 550 nM
SMILES: C=CC(=O)N1CC[C@H](C(=O)N(C)[C@H](C(=O)N[C@H]2Cc3cc(O)cc(c3)-c3ccc4c(c3)c(c(-c3c(CCOC)cccc3OC)n4CC)CC(C)(C)COC(=O)[C@@H]3CCCN(N3)C2=O)C(C)C)C1 [US11566007, Example A80]

IC50 (GTPase NRas [G12C]): < 10 nM | IC50 (GTPase KRas [G12S]): 1000 to 10000 nM
SMILES: CCn1c(-c2ccccc2CCOC)c2c3cc(ccc31)-c1cc(O)cc(c1)C[C@H](NC(=O)[C@H](C(C)C)N(C)C(=O)[C@H]1CCN(C(=O)C#CCN(C)C)C1)C(=O)N1CCC[C@H](N1)C(=O)OCC(C)(C)C2 [US11566007, Example A38]

IC50 (GTPase NRas): > 10000 nM
SMILES: C=CC(=O)N1CC[C@H](C(=O)N(C)[C@H](C(=O)N[C@H]2Cc3cc(O)cc(c3)-c3ccc4c(c3)c(c(-c3nccnc3COC)n4CC)CC(C)(C)COC(=O)[C@@H]3CCCN(N3)C2=O)C(C)C)C1 [US11566007, Example A85]

IC50 (GTPase NRas [Q61R]): > 10000 nM | IC50 (GTPase KRas [G12C]): in the range around 550 nM
SMILES: C=CC(=O)N1CC[C@H](C(=O)N(C)[C@H](C(=O)N[C@H]2Cc3cc(O)cc(c3)-c3ccc4c(c3)c(c(-c3ccc5c(c3)OCCN5C)n4CC)CC(C)(C)COC(=O)[C@@H]3CCCN(N3)C2=O)C(C)C)C1 [US11566007, Example A50]

IC50 (GTPase KRas): in the range around 5500 nM | IC50 (GTPase KRas [G12C]): in the range around 55 nM
SMILES: C=CC(=O)N1CC[C@H](C(=O)N(C)[C@H](C(=O)N[C@H]2Cc3cc(O)cc(c3)-c3ccc4c(c3)c(c(-c3ccccc3COC)n4CC)CC(C)(C)COC(=O)[C@@H]3CCCN(N3)C2=O)C2CCCC2)C1 [US11566007, Example A27]

IC50 (GTPase KRas): in the range around 550 nM
SMILES: C=CC(=O)N1CC[C@H](C(=O)N(C)[C@H](C(=O)N[C@H]2Cc3cc(O)cc(c3)-c3ccc4c(c3)c(c(-c3cnccc3C)n4CC)CC(C)(C)COC(=O)[C@@H]3CCCN(N3)C2=O)C(C)C)C1 [US11566007, Example A77]

IC50 (GTPase NRas [G12C]): in the range around 550 nM | IC50 (GTPase KRas [G12C]): in the range around 550 nM | IC50 (GTPase KRas [G13C]): in the range around 5500 nM
SMILES: C=CC(=O)N1CC[C@H](C(=O)N(C)[C@H](C(=O)N[C@H]2CC3=NN=C(O3)c3ccc4c(c3)c(c(-c3cccnc3[C@H](C)OCC)n4CC(F)(F)F)CC(C)(C)COC(=O)[C@@H]3CCCN(N3)C2=O)C(C)C)C1 [US11566007, Example A424]

IC50 (GTPase NRas [G12C]): < 10 nM | IC50 (GTPase KRas [G12C]): < 10 nM
SMILES: CCn1c(-c2cccnc2COC)c2c3cc(ccc31)-c1cc(O)cc(c1)C[C@H](NC(=O)[C@H](C(C)C)N(C)C(=O)[C@H]1CCN(C(=O)C#CCN3CCOCC3)C1)C(=O)N1CCC[C@H](N1)C(=O)OCC(C)(C)C2 [US11566007, Example A95]

IC50 (GTPase NRas [G12C]): in the range around 55 nM | IC50 (GTPase KRas [G12C]): in the range around 55 nM | IC50 (GTPase KRas [Q61H]): in the range around 550 nM
SMILES: C=CC(=O)N1CC[C@H](C(=O)N(C)[C@H](C(=O)N[C@H]2Cc3cc(O)cc(c3)-c3ccc4c(c3)c(c(-c3cccnc3COC)n4CC)CC(C)(C)COC(=O)[C@@H]3CCCN(N3)C2=O)C(C)C)C1 [US11566007, Example A16]

IC50 (GTPase NRas [Q61R]): in the range around 5500 nM | IC50 (GTPase KRas [G12C]): in the range around 55 nM | IC50 (GTPase KRas [G13C]): in the range around 5500 nM
SMILES: C=CC(=O)N1CC[C@H](C(=O)N(C)[C@H](C(=O)N[C@H]2Cc3cc(O)cc(c3)-c3ccc4c(c3)c(c(C3=C(COC)CCCC3)n4CC)CC(C)(C)COC(=O)[C@@H]3CCCN(N3)C2=O)C(C)C)C1 [US11566007, Example A64]

Continued, molecule first:

SMILES: C=CC(=O)N1CC[C@H](C(=O)N(C)[C@H](C(=O)N[C@H]2Cc3cc(O)cc(c3)-c3ccc4c(c3)c(c(-c3cncnc3)n4CC)CC(C)(C)COC(=O)[C@@H]3CCCN(N3)C2=O)C(C)C)C1 [US11566007, Example A61]
IC50 (GTPase NRas [Q61K]): in the range around 5500 nM | IC50 (GTPase NRas [Q61R]): > 10000 nM | IC50 (GTPase KRas [G12C]): in the range around 550 nM

SMILES: CCn1c(-c2cccnc2COC)c2c3cc(ccc31)-c1cc(O)cc(c1)C[C@H](NC(=O)[C@H](C(C)C)N(C)C(=O)[C@H]1CCN(C(=O)C#CCN(C)C)C1)C(=O)N1CCC[C@H](N1)C(=O)OCC(C)(C)C2 [US11566007, Example A96]
IC50 (GTPase NRas [G12C]): < 10 nM | IC50 (GTPase KRas [G13C]): < 10 nM | IC50 (GTPase KRas [G12S]): 100 to 1000 nM

SMILES: C=CC(=O)N1CC[C@H](C(=O)N(C)[C@H](C(=O)NC2C[C@@H]3CN(CCO3)c3ccc4c(c3)c(c(-c3cccnc3COC)n4CC)CC(C)(C)COC(=O)[C@@H]3CCCN(N3)C2=O)C(C)C)C1 (stereo partly specified) [US11566007, Example A318]
IC50 (GTPase NRas [G12C]): > 10000 nM

SMILES: C=CC(=O)N1CC[C@H](C(=O)N(C)[C@H](C(=O)N[C@H]2Cc3cc(O)cc(c3)-c3ccc4c(c3)c(c(-c3ncccc3COC)n4CC)CC(C)(C)COC(=O)[C@@H]3CCCN(N3)C2=O)C(C)C)C1 [US11566007, Example A84]
IC50 (GTPase NRas [Q61K]): > 10000 nM

SMILES: C=CC(=O)N1CC[C@H](C(=O)N(C)[C@H](C(=O)N[C@H]2Cc3cc(O)cc(c3)-c3ccc4c(c3)c(c(-c3cc(F)cnc3COC)n4CC)CC(C)(C)COC(=O)[C@@H]3CCCN(N3)C2=O)C(C)C)C1 [US11566007, Example A82]
IC50 (GTPase KRas [G12V]): in the range around 550 nM

SMILES: C=CC(=O)N1CC[C@H](C(=O)N(C)[C@H](C(=O)N[C@H]2Cc3cc(O)cc(c3)-c3ccc4c(c3)c(c(-c3ccccc3N3CCOCC3)n4CC)CC(C)(C)COC(=O)[C@@H]3CCCN(N3)C2=O)C(C)C)C1 [US11566007, Example A26]
IC50 (GTPase NRas [Q61R]): > 10000 nM | IC50 (GTPase KRas [G12C]): in the range around 550 nM

SMILES: C=CC(=O)N1CC[C@H](C(=O)N(C)[C@H](C(=O)N[C@H]2Cc3cc(O)cc(c3)-c3ccc4c(c3)c(c(-c3cncc(COC)c3)n4CC)CC(C)(C)COC(=O)[C@@H]3CCCN(N3)C2=O)C(C)C)C1 [US11566007, Example A83]
IC50 (GTPase NRas): in the range around 5500 nM | IC50 (GTPase KRas): in the range around 5500 nM | IC50 (GTPase KRas [G12C]): in the range around 55 nM

SMILES: C=CC(=O)N1CC[C@H](C(=O)N(C)[C@H](C(=O)N[C@H]2Cc3cc(O)cc(c3)-c3ccc4c(c3)c(c(-c3cccnc3N3CC(OC)C3)n4CC)CC(C)(C)COC(=O)[C@@H]3CCCN(N3)C2=O)C(C)C)C1 [US11566007, Example A60]
IC50 (GTPase NRas [Q61R]): > 10000 nM | IC50 (GTPase KRas [G12C]): in the range around 550 nM

SMILES: C=CC(=O)N1CC[C@H](C(=O)N(C)[C@H](C(=O)N[C@H]2Cc3cc(O)cc(c3)-c3ccc4c(c3)c(c(-c3c(F)cccc3CCOC)n4CC)CC(C)(C)COC(=O)[C@@H]3CCCN(N3)C2=O)C(C)C)C1 [US11566007, Example A25]
IC50 (GTPase NRas): in the range around 5500 nM | IC50 (GTPase NRas [Q61R]): > 10000 nM | IC50 (GTPase KRas [G12C]): in the range around 550 nM

SMILES: C=CC(=O)N1CC[C@H](C(=O)N(C)[C@H](C(=O)N[C@H]2Cc3cc(O)cc(c3)-c3cc(F)c4c(c3)c(c(-c3ccccc3CCOC)n4CC)CC(C)(C)COC(=O)[C@@H]3CCCN(N3)C2=O)C(C)C)C1 [US11566007, Example A53]
IC50 (GTPase NRas [Q61K]): > 10000 nM | IC50 (GTPase KRas [G12C]): in the range around 550 nM

SMILES: C=CC(=O)N1CC[C@H](C(=O)N(C)[C@H](C(=O)N[C@H]2Cc3cc(O)cc(c3)-c3ccc4c(c3)c(c(-c3ccccc3)n4CC)CC(C)(C)COC(=O)[C@@H]3CCCN(N3)C2=O)C(C)C)C1 [US11566007, Example A23]
IC50 (GTPase NRas): > 10000 nM | IC50 (GTPase KRas [G12C]): in the range around 550 nM

SMILES: C=CC(=O)N1CC[C@H](C(=O)N(C)[C@H](C(=O)N[C@H]2Cc3cc(O)cc(c3)-c3ccc4c(c3)c(c(-c3ccccc3[C@H](C)OC)n4CC)CC(C)(C)COC(=O)[C@@H]3CCCN(N3)C2=O)C(C)C)C1 [US11566007, Example A22]
IC50 (GTPase NRas): in the range around 550 nM | IC50 (GTPase KRas [Q61H]): in the range around 55 nM

SMILES: CCn1c(-c2cnccc2COC)c2c3cc(ccc31)-c1cc(O)cc(c1)C[C@H](NC(=O)[C@H](C(C)C)N(C)C(=O)[C@H]1CCN(C(=O)C#CCN(C)C)C1)C(=O)N1CCC[C@H](N1)C(=O)OCC(C)(C)C2 [US11566007, Example A88]
IC50 (GTPase NRas [G12C]): < 10 nM

SMILES: C=CC(=O)N1CC[C@H](C(=O)N(C)[C@H](C(=O)N[C@H]2Cc3cc(O)cc(c3)-c3ccc4c(c3)c(c(-c3cccnc3)n4CC)CC(C)(C)COC(=O)[C@@H]3CCCN(N3)C2=O)C(C)C)C1 [US11566007, Example A45]
IC50 (GTPase NRas): in the range around 5500 nM | IC50 (GTPase NRas [Q61R]): > 10000 nM

SMILES: C=CC(=O)N1CC[C@H](C(=O)N(C)[C@H](C(=O)N[C@H]2Cc3cc(O)cc(c3)-c3ccc4c(c3)c(c(-c3ccncc3)n4C(C)(C)C#N)CC(C)(C)COC(=O)[C@@H]3CCCN(N3)C2=O)C(C)C)C1 [US11566007, Example A86]
IC50 (GTPase KRas [G12D]): in the range around 5500 nM | IC50 (GTPase KRas [G12C]): in the range around 55 nM | IC50 (GTPase KRas [Q61H]): in the range around 550 nM

SMILES: CCn1c(-c2cccnc2[C@H](C)OC)c2c3cc(ccc31)-c1cc(O)cc(c1)C[C@H](NC(=O)[C@H](C(C)C)N(C)C(=O)c1nc(NC(=O)/C=C/CN(C)C)cs1)C(=O)N1CCC[C@H](N1)C(=O)OCC(C)(C)C2 [US11566007, Example A258]
IC50 (GTPase NRas [G12C]): in the range around 550 nM | IC50 (GTPase KRas [G12C]): in the range around 550 nM

SMILES: C=CC(=O)N1CC[C@H](C(=O)N(C)[C@H](C(=O)N[C@H]2Cc3nc(cs3)-c3ccc4c(c3)c(c(-c3cccnc3COC)n4CC)CC(C)(C)COC(=O)[C@@H]3CCCN(N3)C2=O)C(C)C)C1 [US11566007, Example A94]
IC50 (GTPase NRas [G12C]): in the range around 550 nM | IC50 (GTPase KRas [G12C]): in the range around 550 nM

Reference: BindingDB's records for patent US11566007 (Revolution Medicines, 2023)
